Patent publication US20240116910A1, “Heterocycles as WIP1 Inhibitors” (PMV Pharmaceuticals, Inc., priority 2022, published 2024)
pIC50: −log10 of the molar value.

Target: recombinant His-tag Wip1(2-420) protein (amino acids #2-420) (Homo sapiens (Human), UniProt O15297)
Assay: Wip1(2-420) phosphatase enzyme FDP assay
Type: biochemical
Conditions: fluorescein diphosphate (FDP) substrate, RT 2 hours, fluorescence Ex485/Em535; read-out: WIP1 (Truncated 2-420) FDP Assay: IC50
Method: The Human Wip1 (2-420, aa 2-420) or Wip1 full length (aa 1-605) DNA sequence was codon optimized and synthesized by Genscript for insect cell expression. The open reading frame of Wip1(2-420) with a N-terminal-His6 affinity tag followed by a TEV cleavage site was subcloned sites into the pFastBac1 expression vector. The recombinant bacmid DNA was transfected in Sf9 insect cells for baculovirus production. After 72 hours infection, the Sf9 cells were harvested by centrifugation and resuspended in lysis buffer containing 50 mM Tris/HCl, pH 8.0, 500 mM NaCl, 20% glycerol, Benzonase 0.5% CHAPS and Roche cOmplete™ EDTA free protease inhibitors. Cells were disrupted with microfluidizer and the debris was removed by centrifugation at 185,000 g for 1 hour. The supernatant was subjected to HisTrap FF for affinity purification. Proteins were eluted with a linear gradient of 0-500 mM imidazole in HisTrap buffer containing 50 mM Tris/HCl, pH 8.0, 500 mM NaCl and 20% glycerol, 0.05% CHAPS. The eluted protein was dialyzed against dialysis buffer (20 mM MES, 100 mM NaCl, 20% glycerol, 0.5 mM TCEP, 0.05% CHAPS) followed purification via HiTrap SP HP column. The protein was eluted with a gradient of 100 mM-2 M NaCl in dialysis buffer. His6-[…] was finally concentrated and loaded onto a size-exclusion column (NiLoad 16/600 Superdex 200 pg, GE Healthcare) pre-equilibrated with 50 mM MOPS (pH 7.5), 200 mM NaCl, 20% glycerol, 1 mM TCEP, 0.05% CHAPS and 0.1 mM EGTA. The peak fractions containing purified Nis6-Wip1(2-420) were pooled and concentrated to 1.0 mg/mL and flash frozen at −80° C.
Wip1 Length and Wip1(2-420) Phosphatase Enzyme FDP Assays.
Test compounds (252 mM stock in DMSO) were diluted 3 folds in series in DMSO and 1.2 μl per well were added into 384-well polypropylene black plates (Nunc). Twelve μl per well of Assay Buffer (100 mM NaCl, 50 mM MOPS, pH 7.5, 0.8 mM CHAPS, 0.1 mM EGTA, 30 mM MgCl2, 0.3 mM TCEP, 0.2 mg/mL BSA) was added followed by […] per well of 50.4 nM recombinant His-tag Wip1 full length protein (amino acids #1-605) or recombinant His-tag Wip1(2-420) protein (amino acids #2-420) in Assay Buffer and the plate was incubated at RT (22° C.) for 5 min. Ten mM of fluorescein diphosphate (FDP) in DMSO was diluted to […] in Assay Buffer and […] per well was added to the plate and incubated at RT (22° C.) for 2 hours. […] per well of 64.1 mM EDTA in water were added to stop the enzyme reaction. The plate was centrifuged at 1,200 rpm (Eppendorf 5810R Plate centrifuge) for 1 minute and fluorescence intensity (Ex485/Em535) was measured on Perkin Elmer Victor Reader. EC50 values were calculated using either Prism (GraphPad) or ActivityBase software (IDBS), The IC50 results are provided in Table M.

Chain of recombinant His-tag Wip1(2-420) protein (amino acids #2-420) (O15297 2-420): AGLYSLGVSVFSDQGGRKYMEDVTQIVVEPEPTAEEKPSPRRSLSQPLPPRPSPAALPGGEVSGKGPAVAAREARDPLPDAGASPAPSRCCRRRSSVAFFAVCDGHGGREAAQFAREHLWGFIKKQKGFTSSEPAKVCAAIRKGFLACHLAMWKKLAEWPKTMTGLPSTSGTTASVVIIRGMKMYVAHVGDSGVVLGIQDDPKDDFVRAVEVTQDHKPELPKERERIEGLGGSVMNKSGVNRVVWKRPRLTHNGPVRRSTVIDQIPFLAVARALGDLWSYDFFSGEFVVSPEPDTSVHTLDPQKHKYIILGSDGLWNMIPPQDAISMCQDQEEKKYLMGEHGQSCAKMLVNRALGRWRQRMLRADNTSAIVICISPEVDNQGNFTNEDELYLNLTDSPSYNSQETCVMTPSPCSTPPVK

Structure (SMILES) | pIC50
Cc1ncc(Cl)cc1N[C@@H](C)c1ccc(C(=O)N[C@@H](CC2CCC3CC32)C(=O)NC23CC(C2)C3)s1 (stereo partly drawn) [Compound 110, (2S)-N-{bicyclo[1.1.1]pentan-1-yl}-3-{bicyclo[3.1.0]hexan-2-yl}-2-({5-[(1S)-1-[(5-chloro-2-methylpyridin-3-yl)amino]ethyl]thiophen-2-yl}formamido)propanamide] | 8.22
Cc1ncc(Cl)cc1N[C@@H](C)c1ccc(C(=O)N[C@@H](CC2CCC3CC32)C(=O)NC23CC(C#N)(C2)C3)s1 (stereo partly drawn) [Compound 111, (2S)-3-{bicyclo[3.1.0]hexan-2-yl}-2-({5-[(1S)-1-[(5-chloro-2-methylpyridin-3-yl)amino]ethyl]thiophen-2-yl}formamido)-N-{3-cyanobicyclo[1.1.1]pentan-1-yl}propanamide] | 7.92
Cc1ncc(Cl)cc1N[C@@H](C)c1ccc(C(=O)N[C@@H](CC2CCCCC2)C(=O)Nc2ccc(F)cc2)s1 [Compound 112, (2S)-2-({5-[(1S)-1-[(5-chloro-2-methylpyridin-3-yl)amino]ethyl]thiophen-2-yl}formamido)-3-cyclohexyl-N-(4-fluorophenyl)propanamide] | 8.40
Cc1ncc(Cl)cc1N[C@@H](C)c1ccc(C(=O)N[C@@H](CC2CCC3CC32)C(=O)N[C@H]2C[C@H](F)C2)s1 (stereo partly drawn) [Compound 116, (2S)-3-{bicyclo[3.1.0]hexan-2-yl}-2-({5-[(1S)-1-[(5-chloro-2-methylpyridin-3-yl)amino]ethyl]thiophen-2-yl}formamido)-N-[(1r,3r)-3-fluorocyclobutyl]propanamide] | 8.00
Cc1ncc(Cl)cc1N[C@H](C)c1ncc(C(=O)N[C@@H](CC2CCCC2)C(=O)NC2CC2)s1 [Compound 127, (2S)-2-({2-[(1R)-1-[(5-chloro-2-methylpyridin-3-yl)amino]ethyl]-1,3-thiazol-5-yl}formamido)-3-cyclopentyl-N-cyclopropylpropanamide] | 5.81
Cc1cc(NC(=O)[C@H](CC2CCCC2)NC(=O)c2cnc([C@H](C)Nc3cccc(Cl)c3)s2)cc(C)n1 [Compound 128, (2S)-2-({2-[(1S)-1-[(3-chlorophenyl)amino]ethyl]-1,3-thiazol-5-yl}formamido)-3-cyclopentyl-N-(2,6-dimethylpyridin-4-yl)propanamide] | 5.41
C[C@@H](Nc1cc(Cl)cnc1C(N)=O)c1ccc(C(=O)N[C@@H](CC2CCCC2)C(=O)NC23CC(C2)C3)s1 [Compound 132, 3-{[(1R)-1-(5-{[(1S)-1-({bicyclo[1.1.1]pentan-1-yl}carbamoyl)-2-cyclopentylethyl]carbamoyl}thiophen-2-yl)ethyl]amino}-5-chloropyridine-2-carboxamide] | 7.12
C[C@H](Nc1cc(Cl)cnc1C(N)=O)c1ccc(C(=O)N[C@@H](CC2CCCC2)C(=O)NC23CC(C2)C3)s1 [Compound 133, 3-{[(1S)-1-(5-{[(1S)-1-({bicyclo[1.1.1]pentan-1-yl}carbamoyl)-2-cyclopentylethyl]carbamoyl}thiophen-2-yl)ethyl]amino}-5-chloropyridine-2-carboxamide] | 8.40
Cc1ncc(Cl)cc1N[C@@H](C)c1ccc(C(=O)NC(CC2CCCC2)C(=O)Nc2c[nH]nn2)s1 (stereo partly drawn) [Compound 134, 2-({5-[(1S)-1-[(5-chloro-2-methylpyridin-3-yl)amino]ethyl]thiophen-2-yl}formamido)-3-cyclopentyl-N-(1H-1,2,3-triazol-4-yl)propanamide] | 8.40
Cc1ncc(Cl)cc1N[C@@H](C)c1ccc(C(=O)N[C@@H](CC2CCCC2)C(=O)Nc2ccnc(C(N)=O)c2)s1 [Compound 135, 4-[(2S)-2-({5-[(1S)-1-[(5-chloro-2-methylpyridin-3-yl)amino]ethyl]thiophen-2-yl}formamido)-3-cyclopentylpropanamido]pyridine-2-carboxamide] | 8.30
C[C@@H](Nc1cc(Cl)cnc1C(N)=O)c1ccc(C(=O)N[C@@H](CC2CCCC2)C(=O)Nc2cnn(C)c2)s1 [Compound 137, 5-chloro-3-{[(1R)-1-(5-{[(1S)-2-cyclopentyl-1-[(1-methyl-1H-pyrazol-4-yl)carbamoyl]ethyl]carbamoyl}thiophen-2-yl)ethyl]amino}pyridine-2-carboxamide] | 7.27

More lines, in order of rising pIC50, values ahead:

pIC50 | Structure (SMILES)
5.99 | Cc1ncc(Cl)cc1N[C@H](C)c1ncc(C(=O)N[C@@H](CC2CCCC2)C(=O)NC23CC(C2)C3)s1 [Compound 126, (2S)-N-{bicyclo[1.1.1]pentan-1-yl}-2-({2-[(1R)-1-[(5-chloro-2-methylpyridin-3-yl)amino]ethyl]-1,3-thiazol-5-yl}formamido)-3-cyclopentylpropanamide]
6.04 | C[C@H](Nc1cccc(Cl)c1)c1ncc(C(=O)N[C@@H](CC2CCCC2)C(=O)NC2CC2)s1 [Compound 124, (2S)-2-({2-[(1S)-1-[(3-chlorophenyl)amino]ethyl]-1,3-thiazol-5-yl}formamido)-3-cyclopentyl-N-cyclopropylpropanamide]
7.10 | Cc1ncc(Cl)cc1NC(CC1CCN(C)CC1)c1ccc(C(=O)N[C@@H](CC2CCCC2)C(=O)NC2CC2)s1 (stereo partly drawn) [Compound 131, (2S)-2-[(5-{1-[(5-chloro-2-methylpyridin-3-yl)amino]-2-(1-methylpiperidin-4-yl)ethyl}thiophen-2-yl)formamido]-3-cyclopentyl-N-cyclopropylpropanamide]
7.66 | Cc1ncc(Cl)cc1NC(Cc1ccncc1)c1ccc(C(=O)N[C@@H](CC2CCCC2)C(=O)NC2CC2)s1 (stereo partly drawn) [Compound 130, (2S)-2-[(5-{1-[(5-chloro-2-methylpyridin-3-yl)amino]-2-(pyridin-4-yl)ethyl}thiophen-2-yl)formamido]-3-cyclopentyl-N-cyclopropylpropanamide]
7.72 | Cc1ncc(Cl)cc1N[C@@H](C)c1ccc(C(=O)N[C@@H](CC2CCCC2)C(N)=O)s1 [Compound 138, (2S)-2-({5-[(1S)-1-[(5-chloro-2-methylpyridin-3-yl)amino]ethyl]thiophen-2-yl}formamido)-3-cyclopentylpropanamide]
7.96 | Cc1ncc(Cl)cc1N[C@@H](C)c1ccc(C(=O)N[C@@H](CC2CCCC2)C(=O)NC23COC(C2)C3)s1 [Compound 113, (2S)-2-({5-[(1S)-1-[(5-chloro-2-methylpyridin-3-yl)amino]ethyl]thiophen-2-yl}formamido)-3-cyclopentyl-N-{2-oxabicyclo[2.1.1]hexan-4-yl}propanamide]
7.96 | Cc1ncc(Cl)cc1N[C@@H](C)c1ccc(C(=O)N[C@@H](CC2CCCC2)C(=O)NC2CCC(C#N)C2)s1 (stereo partly drawn) [Compound 115, (2S)-2-({5-[(1S)-1-[(5-chloro-2-methylpyridin-3-yl)amino]ethyl]thiophen-2-yl}formamido)-N-(3-cyanocyclopentyl)-3-cyclopentylpropanamide]
8.15 | COCCN1CCCc2cc(NC(=O)[C@H](CC3CCCC3)NC(=O)c3ccc([C@H](C)Nc4cc(Cl)cnc4C)s3)ccc21 [Compound 129, (2S)-2-({5-[(1S)-1-[(5-chloro-2-methylpyridin-3-yl)amino]ethyl]thiophen-2-yl}formamido)-3-cyclopentyl-N-[1-(2-methoxyethyl)-1,2,3,4-tetrahydroquinolin-6-yl]propanamide]
8.22 | Cc1ncc(Cl)cc1N[C@@H](C)c1ccc(C(=O)N[C@@H](CC2CCCC2)C(=O)N[C@H]2C[C@H](C)C2)s1 [Compound 114, (2S)-2-({5-[(1S)-1-[(5-chloro-2-methylpyridin-3-yl)amino]ethyl]thiophen-2-yl}formamido)-3-cyclopentyl-N-[(1s,3r)-3-methylcyclobutyl]propanamide]
8.30 | C[C@H](Nc1cc(Cl)cnc1C(N)=O)c1ccc(C(=O)N[C@@H](CC2CCCC2)C(=O)Nc2cnn(C)c2)s1 [Compound 136, 5-chloro-3-{[(1S)-1-(5-{[(1S)-2-cyclopentyl-1-[(1-methyl-1H-pyrazol-4-yl)carbamoyl]ethyl]carbamoyl}thiophen-2-yl)ethyl]amino}pyridine-2-carboxamide]
